Measured values: ChEMBL document CHEMBL5365500, “Development and Antibacterial Properties of 4-[4-(Anilinomethyl)-3-phenylpyrazol-1-yl]benzoic Acid Derivatives as Fatty Acid Biosynthesis Inhibitors” (J Med Chem, 2023)
Converted amounts (≈) assume the structure as drawn. The source made the active and inactive calls. The calls are words filed in the database; no cut-off is given here.

What was measured:
[1] = system: Staphylococcus aureus; assay: Antimicrobial activity against antibiotic-resistant Staphylococcus aureus ATCC 33591 assessed as inhibition of visible growth measured after 20 to 24 hrs incubation by CLSI method; format: functional; conditions: time 20-24 hrs
[2] = system: Cell membrane; assay: Induction of membrane permeability in Staphylococcus aureus ATCC 700699 assessed as increase in fluorescence at 4 times of MIC incubated for 15 mins measured for 1 hr by propidium iodide/real time fluorescence based flow cytometry; format: subcellular; conditions: time 75.0 min
[3] = system: Staphylococcus aureus; assay: In vivo antimicrobial activity against Staphylococcus aureus USA300 infected in Caenorhabditis elegans AU37 nematodes assessed as viability of nematodes incubated for 5 days by susceptibility test; format: functional; conditions: USA300, 120 h, time 5 day
[4] = system: Cell membrane; assay: Induction of membrane permeability in Staphylococcus aureus ATCC 700699 assessed as increase in fluorescence at 8 times of MIC incubated for 15 mins measured for 1 hr by propidium iodide/real time fluorescence based flow cytometry; format: subcellular
[5] = system: Staphylococcus aureus; assay: Antimicrobial activity against methicillin-resistant Staphylococcus aureus USA300 infected in liquid-based Caenorhabditis elegans co-infection model assessed as rescue of worms by measuring viability at 1 ug/ml incubated for 5 days (reference value: 20%); format: functional; conditions: dose 1 µg/ml; time 5 day
[6] = Toxicity in Caenorhabditis elegans AU37 assessed as survival at 4 ug/ml measured for 4 days; conditions: 96 h, dose 4 µg/ml, time 4 day
[7] = system: Staphylococcus aureus; assay: Antimicrobial activity against methicillin-resistant Staphylococcus aureus USA300 infected in liquid-based Caenorhabditis elegans co-infection model assessed as rescue of worms by measuring viability at 4 ug/ml incubated for 5 days (reference value: 20%); format: functional; conditions: dose 4 µg/ml; time 5 day
[8] = system: Staphylococcus aureus; assay: Antimicrobial activity against methicillin-resistant Staphylococcus aureus USA300 infected in liquid-based Caenorhabditis elegans co-infection model assessed as rescue of worms by measuring viability at 2 ug/ml incubated for 5 days (reference value: 20%); format: functional; conditions: dose 2 µg/ml; time 5 day
[9] = system: Cell membrane; assay: Induction of membrane permeability in Staphylococcus aureus ATCC 700699 assessed as increase in fluorescence intensity at 1 times of MIC incubated for 15 mins measured for 1 hr by propidium iodide/real time fluorescence based flow cytometry Rvb = 3.5); conditions: time 75.0 min
[10] = system: Staphylococcus aureus; assay: Bactericidal activity in antibiotic-resistant Staphylococcus aureus ATCC 700699 assessed as reduction in viable cell count at 4 times of MIC measured upto 24 hrs by time kill assay; format: functional, organism-based
[11] = system: Staphylococcus aureus; assay: Antimicrobial activity against methicilline-resistant Staphylococcus aureus ATCC 700699 persisters assessed as bacterial killing at 32 time of MIC concentration measured for every 2 hrs upto 8 hrs by Persisters time course assay; format: functional, organism-based
[12] = system: Staphylococcus aureus; assay: Antimicrobial activity against Staphylococcus aureus UAB159 assessed as inhibition of growth measured after 20 to 24 hrs incubation by CLSI method; format: functional; conditions: time 20-24 hrs
[13] = system: Enterococcus faecalis; assay: Antimicrobial activity against Enterococcus faecalis ATCC 29212 assessed as inhibition of biofilm formation by measuring prevention of turbidity after 24 hrs incubation by Real-time monitoring method; format: functional
[14] = system: Staphylococcus aureus; assay: Antimicrobial activity against Staphylococcus aureus ATCC 25923 assessed as inhibition of biofilm formation by measuring prevention of turbidity after 24 hrs incubation by Real-time monitoring method; format: functional
[15] = system: Enterococcus faecium; assay: Antimicrobial activity against Enterococcus faecium […] assessed as inhibition of biofilm formation after 24 hrs incubation by Real-time monitoring method; format: functional
[16] = system: Staphylococcus aureus; assay: Antimicrobial activity against clinical isolate Staphylococcus aureus Smu81 assessed as inhibition of growth measured after 20 to 24 hrs incubation by CLSI method; format: functional; conditions: time 20-24 hrs
[17] = system: Bacillus subtilis; assay: Antimicrobial activity against antibiotic-resistant Bacillus subtilis ATCC 6623 assessed as inhibition of visible growth measured after 20 to 24 hrs incubation by CLSI method; format: functional; conditions: time 20-24 hrs
[18] = system: Staphylococcus aureus; assay: Antimicrobial activity against antibiotic-resistant Staphylococcus aureus ATCC 33592 assessed as inhibition of visible growth measured after 20 to 24 hrs incubation by CLSI method; format: functional; conditions: time 20-24 hrs
[19] = Toxicity in Caenorhabditis elegans AU37 assessed as survival at 20 ug/ml measured for 4 days; conditions: at 20 µg/mL, time 4 day
[20] = system: Staphylococcus aureus; assay: Antimicrobial activity against clinical isolate Staphylococcus aureus Smu21 assessed as inhibition of growth measured after 20 to 24 hrs incubation by CLSI method; format: functional; conditions: time 20-24 hrs
[21] = system: Panel NCI-60 (60 carcinoma cell lines); assay: Cytotoxicity against human panel NCI-60 (60 carcinoma cell lines)cells assessed as cell viability at 10 uM measured after 24 hrs by resazurin assay; format: functional, cell-based
[22] = system: Cell membrane; assay: Induction of membrane permeability in Staphylococcus aureus ATCC 700699 assessed as increase in fluorescence intensity at 2 times of MIC incubated for 15 mins measured for 1 hr by propidium iodide/real time fluorescence based flow cytometry Rvb = 3.5); format: subcellular; conditions: time 75.0 min
[23] = system: Staphylococcus aureus; assay: In vivo antimicrobial activity against Staphylococcus aureus UAMS-1 infected in Caenorhabditis elegans AU37 nematodes assessed as viability of nematodes incubated for 5 days by susceptibility test; format: functional; conditions: UAMS-1, 120 h, time 5 day
[24] = system: Staphylococcus aureus; assay: Antimicrobial activity against antibiotic-resistant Staphylococcus aureus ATCC BAA-2312 assessed as inhibition of visible growth measured after 20 to 24 hrs incubation by CLSI method; format: functional; conditions: time 20-24 hrs
[25] = system: Staphylococcus aureus; assay: Antimicrobial activity against clinical isolate Staphylococcus aureus Smu9 assessed as inhibition of growth measured after 20 to 24 hrs incubation by CLSI method; format: functional; conditions: time 20-24 hrs
[26] = system: Cell membrane; assay: Induction of membrane permeability in Staphylococcus aureus ATCC 700699 assessed as increase in fluorescence at 0.5 to 2 times of MIC incubated for 15 mins measured for 1 hr by propidium iodide/real time fluorescence based flow cytometry; format: subcellular; conditions: time 75.0 min
[27] = system: Staphylococcus aureus; assay: In vivo antimicrobial activity against Staphylococcus aureus Newman infected in Caenorhabditis elegans AU37 nematodes assessed as viability of nematodes incubated for 5 days by susceptibility test; format: functional; conditions: 120 h, time 5 day
[28] = system: Cell membrane; assay: Induction of membrane permeability in Staphylococcus aureus ATCC 700699 assessed as increase in fluorescence intensity at 4 times of MIC incubated for 15 mins measured for 1 hr by propidium iodide/real time fluorescence based flow cytometry Rvb = 3.5); conditions: time 75.0 min
[29] = system: Erythrocyte; assay: Hemolytic activity in sheep red blood cells assessed as hemolysis at 64 ug/ml incubated for 30 mins relative to control; format: toxicity, cell-based, Ovis aries; conditions: 0.5 h, at 64 µg/mL
[30] = system: Erythrocyte; assay: Hemolytic activity in sheep red blood cells assessed as hemolysis at 16 to 32 ug/ml incubated for 30 mins relative to control; format: toxicity, cell-based, Ovis aries; conditions: 0.5 h, dose 16-32 µg/ml
[31] = system: Enterococcus faecalis; assay: Antimicrobial activity against antibiotic-susceptible Enterococcus faecalis ATCC 29212 assessed as inhibition of biofilm formation by measuring prevention of turbidity after 24 hrs incubation by Real-time monitoring method; format: functional
[32] = system: Staphylococcus aureus; assay: Antimicrobial activity against clinical isolate Staphylococcus aureus Smu57 assessed as inhibition of growth measured after 20 to 24 hrs incubation by CLSI method; format: functional; conditions: time 20-24 hrs
[33] = system: Enterococcus faecalis; assay: Antimicrobial activity against antibiotic-susceptible Enterococcus faecalis ATCC 29212 assessed as eradication of biofilm measured after 24 hrs incubation by Calgary method; format: functional
[34] = system: Staphylococcus aureus; assay: Antimicrobial activity against methicilline-resistant Staphylococcus aureus ATCC 700699 persisters assessed as reduction in initial persister concentration at 8 times of MIC concentration measured for 8 hrs by Persisters time course assay; format: functional
[35] = system: Staphylococcus aureus; assay: Antimicrobial activity against methicilline-resistant Staphylococcus aureus ATCC 700699 persisters assessed as reduction in initial persister concentration at 16 times of MIC concentration measured for 2 hrs by Persisters time course assay; format: functional, organism-based
[36] = system: Staphylococcus aureus; assay: Antimicrobial activity against Staphylococcus aureus ATCC 25923 assessed as inhibition of visible growth measured after 20 to 24 hrs incubation by CLSI method; format: functional; conditions: time 20-24 hrs
[37] = system: Staphylococcus aureus; assay: Resistance development in methicillin-sensitive Staphylococcus aureus ATCC 25923 assessed as fold increase in MIC at 0.5 times of MIC measured at 4 to 6 th passages by multistep resistance assay; format: functional
[38] = system: Staphylococcus aureus; assay: Antimicrobial activity against clinical isolate Staphylococcus aureus Smu109 assessed as inhibition of growth measured after 20 to 24 hrs incubation by CLSI method; format: functional; conditions: time 20-24 hrs
[39] = system: Staphylococcus aureus; assay: Antimicrobial activity against methicilline-resistant Staphylococcus aureus ATCC 700699 persisters assessed as reduction in initial persister concentration at 2 times of MIC concentration measured for 2 to 8 hrs by Persisters time course assay; format: functional, organism-based; conditions: time 2-8 hrs

O=C(O)c1ccc(-n2cc(CNc3ccc(Cl)c(C(F)(F)F)c3)c(-c3cccc(F)c3)n2)cc1
MIC [1]: 1 µg/mL (≈ 2.04 µM) | Activity [2]: Active | MIC [3]: 2 µg/mL (≈ 4.08 µM) | Activity [4]: inactive | Activity [5]: 90% | Activity [6]: Non-Toxic | Activity [7]: 90% | Activity [8]: 90% | Activity [9]: 22.3% | Activity [10]: Active | Activity [11]: Active | MIC [12]: 4 µg/mL (≈ 8.17 µM) | MIC [13]: 8 µg/mL (≈ 16.3 µM) | MIC [14]: 4 µg/mL (≈ 8.17 µM) | MBIC [15]: 8 µg/mL | MIC [16]: 4 µg/mL (≈ 8.17 µM) | MIC [17]: 0.5 µg/mL (≈ 1.02 µM) | MIC [18]: 1 µg/mL (≈ 2.04 µM) | survival at 96 h, 20 ug/ml [19]: > 80% | MIC [20]: 4 µg/mL (≈ 8.17 µM) | Activity [21]: inactive | Activity [22]: 32.3% | MIC [23]: 1 µg/mL (≈ 2.04 µM) | MIC [24]: 1 µg/mL (≈ 2.04 µM) | MIC [25]: 2 µg/mL (≈ 4.08 µM) | Activity [26]: inactive | MIC [27]: 1 µg/mL (≈ 2.04 µM) | Activity [28]: 95.6% | Activity [29]: < 10% | Activity [30]: Non-Toxic | MBBC [31]: 16 µg/mL

O=C(O)c1ccc(-n2cc(CNc3ccc(Br)c(C(F)(F)F)c3)c(-c3cccc(F)c3)n2)cc1
MIC [32]: 2 µg/mL (≈ 3.74 µM) | MIC [1]: 0.5 µg/mL (≈ 0.936 µM) | MIC [3]: 1 µg/mL (≈ 1.87 µM) | Activity [4]: inactive | MBEC [33]: 2 µg/mL | Activity [10]: Active | log(activity) [34]: 6 | Activity [11]: Active | MIC [12]: 4 µg/mL (≈ 7.49 µM) | MIC [13]: 8 µg/mL (≈ 15 µM) | MIC [14]: 2 µg/mL (≈ 3.74 µM) | MBIC [15]: 8 µg/mL | Activity [35]: Active | MIC [16]: 4 µg/mL (≈ 7.49 µM) | MIC [17]: 0.5 µg/mL (≈ 0.936 µM) | MIC [18]: 0.5 µg/mL (≈ 0.936 µM) | MIC [20]: 4 µg/mL (≈ 7.49 µM) | Activity [21]: inactive | MIC [23]: 1 µg/mL (≈ 1.87 µM) | MIC [24]: 1 µg/mL (≈ 1.87 µM) | MIC [25]: 4 µg/mL (≈ 7.49 µM) | MIC [36]: 1 µg/mL (≈ 1.87 µM) | Activity [26]: inactive | MIC [27]: 1 µg/mL (≈ 1.87 µM) | fold change (FC) [37]: 2 | MIC [38]: 2 µg/mL (≈ 3.74 µM) | Activity [29]: < 10% | Activity [30]: Non-Toxic | Activity [39]: inactive
